Data: patent US20250051300A1, “GRAM-NEGATIVE SPECIFIC ANTIBIOTICS SPARING EFFECT ON GUT MICROBIOME” (THE BOARD OF TRUSTEES OF THE UNIVERSITY OF ILLINOIS, priority 2021, published 2025)
In brackets after ≈: the same amount, converted by molar mass. Where two headings read alike, the source gives them in different places.

Legend:
E. cloacae AR0163 [1] = assay: Bacterial sepsis survival model; format: in vivo, CD-1 mice; conditions: colistin-resistant E. cloacae, 100 mg/kg IP twice daily for 3 days (FIG. 7F)
Proteus mirabilis = assay: MIC, gut commensal bacteria, micro-dilution broth
E. cloacae AR0163 [2] = assay: Acute pneumonia bacterial burden model; format: in vivo, CD-1 mice; conditions: colistin-resistant E. cloacae, 100 mg/kg IP (FIG. 7E)
Bacteroides vulgatus = assay: MIC, gut commensal bacteria, micro-dilution broth
Bacteroides fragilis = assay: MIC, gut commensal bacteria, micro-dilution broth
Bacillus anthracis = assay: microbe, parasite or virus in culture; format: cell-based
A-549 cells = assay: Cell viability (Alamar Blue), mammalian cell line; format: cell-based; conditions: Homo sapiens, A549, read-out: IC50, mammalian cell lines (converted)
Method: (§1) Cell culture. HFF-1 cells (newborn) were obtained from the ATCC. […] A-549 cells (adult) were obtained from the ATCC. […] All cells were cultured at 37° C. under a 5% CO2 environment. Cell lines were authenticated externally by a commercial vendor and inspected visually in house. Cell lines were not tested for Mycoplasma contamination. The media was prepared by the University of Illinois School of Chemical Sciences Cell Media Facility. Cell viability. HFF-1 cells were seeded (8,000 cells/well) in a 96-well plate (Greiner Bio-One; catalogue number: 655180) and allowed to attach overnight. Cells were treated with investigational compounds in dimethyl sulfoxide (DMSO). […] Raptinal (100 μM) was used as a dead control. On each plate, at least three technical replicates per compound were performed. After 24 h post-treatment, cell viability was assessed using the Alamar Blue method. Stock Alamar Blue solution (10 μL 440 μM resazurin (Sigma-Aldrich; catalogue number: R7017) in sterile 1×PBS) was added to each well, and the plate was incubated for 3-4 h. Conversion of Alamar Blue was measured with a plate reader (SpectraMax M3; Molecular Devices) by fluorescence (excitation wavelength: 555 nm; emission wavelength: 585 nm; cutoff 570 nm; autogain). Percentage death was determined by normalizing to DMSO-treated cells and Raptinal-treated cells. […]

HFF-1 cells = assay: Cell viability (Alamar Blue), mammalian cell line; format: cell-based; conditions: Homo sapiens, HFF-1, 24 h, read-out: IC50, mammalian cell lines
Method: as §1

Morganella morganii = assay: MIC, gut commensal bacteria, micro-dilution broth
K. pneumoniae ATCC 27736 = assay: Resistance frequency, large inoculum method; format: cell-based, Klebsiella pneumoniae; conditions: wild-type K. pneumoniae ATCC 27736, 8×MIC
Method: Selection of resistant mutants. Resistant mutants were selected using the large inoculum method. Briefly, E. coli BW25113, K. pneumoniae ATCC 27736, or E. cloacae ATCC 29893 (˜1.0×10^7 c.f.u.) was plated on 100-mm plates of Luria Bertani agar containing 8, 16, 32, or 64 μg/mL, lolamycin. For E. coli ΔtolC (JW5503), ˜1.0×10^7 c.f.u. was plated on 100-mm plates of Luria Bertani agar containing 0.063, 0.13, 0.25, 0.5 μg/mL lolamycin. Colonies were visible after incubating at 37° C. for 48 h. Resistant colonies were confirmed by growing colonies in selective media with the same concentration of lolamycin.

Enterococcus faecalis = assay: MIC, micro-dilution broth method (CLSI); format: cell-based
Streptococcus salivarius = assay: MIC, gut commensal bacteria, micro-dilution broth
K. pneumoniae AR0040 = assay: Acute pneumonia bacterial burden model; format: in vivo, CD-1 mice; conditions: colistin-resistant K. pneumoniae, 100 mg/kg IP (FIG. 7C)
Streptococcus pneumoniae = assay: MIC, micro-dilution broth method (CLSI); format: cell-based; conditions: Streptococcus pneumoniae Strain 1003
Excerpt: (§2) Antimicrobial susceptibility assays.

Bacillus subtilis = assay: MIC, micro-dilution broth method (CLSI); format: cell-based; conditions: Bacillus subtilis PY79
Excerpt: as §2

Pseudomonas aeruginosa = assay: MIC, micro-dilution broth method (CLSI); format: cell-based
Excerpt: as §2

Listeria monocytogenes = assay: MIC, micro-dilution broth method (CLSI); format: cell-based; conditions: ATCC19115; Listeria monocytogenes ATCC 19115
Excerpt: as §2

Staphylococcus aureus = assay: MIC, micro-dilution broth method (CLSI); format: cell-based; conditions: ATCC29213; Staphylococcus aureus ATCC 29213
Excerpt: as §2

Acinetobacter baumannii = assay: MIC, micro-dilution broth method (CLSI); format: cell-based
Excerpt: as §2

Bacillus cereus = assay: MIC, micro-dilution broth method (CLSI); format: cell-based; conditions: ATCC11778; Bacillus cereus ATCC 11778
Excerpt: as §2

Streptococcus pyogenes = assay: MIC, micro-dilution broth method (CLSI); format: cell-based; conditions: Streptococcus pyogenes Strain 1055
Excerpt: as §2

Enterococcus faecium = assay: MIC, micro-dilution broth method (CLSI); format: cell-based; conditions: ATCC19434; Enterococcus faecium ATCC 19434
Excerpt: as §2

Salmonella typhimurium = assay: MIC, micro-dilution broth method (CLSI); format: cell-based; conditions: Salmonella enterica, ATCC 14028 / TYPHIMURIUM; Salmonella typhimurium ATCC14028

SMILES: Cc1cc(-c2c[nH]nc2-c2cccc(OCc3cccc(C#N)c3)c2)cc(C)n1 [Compound 12, 3-((3-(4-(2,6-dimethylpyridin-4-yl)-1H-pyrazol-3-yl)phenoxy)methyl)benzonitrile]
- efficacy, survival (E. cloacae AR0163 [1]): showed the efficacy
- MIC (Proteus mirabilis; Proteus mirabilis ATCC 35659, listed as Lolamycin): >128 µg/mL
- MIC (Proteus mirabilis; Proteus mirabilis, ATCC35659): > 128 µg/mL
- efficacy, bacterial burden (E. cloacae AR0163 [2]): showed the efficacy
- MIC (Bacteroides vulgatus; Bacteroides vulgatus KLE 2303, BHI-ych, listed as Lolamycin): >128 µg/mL
- MIC (Bacteroides vulgatus; Phocaeicola vulgatus): > 128 µg/mL
- MIC (Bacteroides fragilis; Bacteroides fragilis ATCC 25285, BHI-ych, listed as Lolamycin): >128 µg/mL
- MIC (Bacteroides fragilis; Bacteroides fragilis, ATCC25285): > 128 µg/mL
- MIC (Bacillus anthracis): > 128 µg/mL
- IC50 (A-549 cells): 41.9 µM
- IC50 (HFF-1 cells): 85.3 ± 11.8 µM
- MIC (Morganella morganii; ATCC25380): > 128 µg/mL
- MIC (Morganella morganii; ATCC25839): > 128 µg/mL
- resistance frequency (K. pneumoniae ATCC 27736): 1.2×10^−8
- MIC (Enterococcus faecalis; Enterococcus faecalis): > 128 µg/mL
- MIC (Enterococcus faecalis; Enterococcus faecalis KLE 2341, BHI-ych, listed as Lolamycin): >128 µg/mL
- MIC (Enterococcus faecalis; Enterococcus faecalis, ATCC19433): > 128 µg/mL
- MIC (Streptococcus salivarius; Streptococcus salivarius): > 128 µg/mL
- MIC (Streptococcus salivarius; Streptococcus salivarius KLE 2370, BHI-ych, listed as Lolamycin): >128 µg/mL
- efficacy, bacterial burden (K. pneumoniae AR0040): showed the efficacy
- MIC (Streptococcus pneumoniae): > 128 µg/mL
- MIC (Bacillus subtilis): > 128 µg/mL
- MIC (Pseudomonas aeruginosa; Pseudomonas aeruginosa PAO1, read-out: MIC): > 128 µg/mL
- MIC (Pseudomonas aeruginosa; Pseudomonas aeruginosa PAO1 Δ6): > 128 µg/mL
- MIC (Listeria monocytogenes): > 128 µg/mL
- MIC (Staphylococcus aureus): > 128 µg/mL
- MIC (Acinetobacter baumannii; ATCC19606, Acinetobacter baumannii ATCC 19606): > 128 µg/mL
- MIC (Acinetobacter baumannii; ATCC19606, Acinetobacter baumannii ATCC 19606 Δ3): 32 µg/mL (≈ 84.1 µM)
- MIC (Bacillus cereus): > 128 µg/mL
- MIC (Streptococcus pyogenes): > 128 µg/mL
- MIC (Enterococcus faecium): > 128 µg/mL
- MIC (Salmonella typhimurium): 1 µg/mL (≈ 2.63 µM)
